Laboratory results published in patent US7384478B2, “Apparatus and process for preparing crystalline particles” (Glaxo Group Limited, priority 2002, dated 2008).
Marks after values point to notes of the source that are not given here.

Experiment: Particle sizing with the Malvern laser diffraction particle sizer
Assay type: physicochemical
Settings: for Malvern size data D10 / Malvern size data D50 / Malvern size data D90: crystalline fluticasone propionate particles, average of 2 results except values marked **
Method: The drug substance (fluticasone propionate, FP) (1 wt) was dissolved in acetone (15-20 vols, according to experiment) by heating to 56° C. and then allowed to cool to between 25 and 35° C. A first peristaltic pump was connected to the said FP/acetone solution and a second peristaltic pump was connected to a water reservoir wherein the water was in the temperature range of about 3-30° C. Prior to starting the pumps the mixing chamber was filled with a solution of acetone and water (the ratio of each being the same as the relative pumping rates from the two reservoirs). By doing this, the relative concentrations of the water to acetone remained constant throughout the crystallisation. The temperature of the mixing chamber was maintained in the range about −10 to +30° C. by passing tempered heat transfer fluid through the vessel jacket. The FP/acetone solution inlet and water inlet were arranged coaxially or in parallel (as shown in FIGS. 1a/1b/2a/2b) and the tip of the ultrasound probe was positioned so that it is just above the inlets. Stirring with the aid of a non-grinding magnetic stirrer bar or overhead stirrer was initiated as is the ultrasound at intensity 2-4 W/cm^2 (with respect to the tip face area of the probe). A comparison experiment with the ultrasound probe in place but zero power was performed. Re-crystallisations were carried out from various mixtures of acetone and water (by altering the flow rates of each) as dictated by the parameters set out in the experimental design. Finally the pumps were started simultaneously. A suspension of the crystals in the re-crystallisation mixture was allowed to exit via the overflow directly on to a filter bed. The slurry is isolated and washed with water and dried in vacuo between about 20 to 50° C.
Comparison experiments were performed using the apparatus with diametrically opposite input feeds described in WO 00/38811 in which save for the input feed geometry and the specific parameters given in the table below, and the vessel dimensions given below, other parameters Were similar to those used for the experiments using the present invention.
Samples were sized using the Malvern laser diffraction particle sizer and the results analysed using multi-dimensional model fitting software (such as Design Expert 5).

Q: Which “Malvern size data D10” value (listed as 8) does the source give for `CCC(=O)O[C@]1(C(=O)SCF)[C@H](C)C[C@H]2[C@@H]3C[C@H](F)C4=CC(=O)C=C[C@]4(C)[C@@]3(F)[C@@H](O)C[C@@]21C` [Run 8, fluticasone propionate] here?
A: 1.88 micron

Q: And the “Malvern size data D50” value (listed as 8)?
A: 5.13 micron

Q: And the “Malvern size data D90” value (listed as 8)?
A: 11.86 micron

Q: Which “Malvern size data D10” value (listed as 2) does the source give for `CCC(=O)O[C@]1(C(=O)SCF)[C@H](C)C[C@H]2[C@@H]3C[C@H](F)C4=CC(=O)C=C[C@]4(C)[C@@]3(F)[C@@H](O)C[C@@]21C` [Run 2, fluticasone propionate] here?
A: 0.52 micron

Q: And the “Malvern size data D50” value (listed as 2)?
A: 2.08 micron

Q: And the “Malvern size data D90” value (listed as 2)?
A: 5.10 micron

Q: For `CCC(=O)O[C@]1(C(=O)SCF)[C@H](C)C[C@H]2[C@@H]3C[C@H](F)C4=CC(=O)C=C[C@]4(C)[C@@]3(F)[C@@H](O)C[C@@]21C` [Run 3, fluticasone propionate], which “Malvern size data D10” value (listed as 3) is on record?
A: 0.47 micron

Q: What about the “Malvern size data D50” value (listed as 3) of the same compound?
A: 1.78 micron

Q: And the “Malvern size data D90” value (listed as 3)?
A: 4.39 micron

Q: With `CCC(=O)O[C@]1(C(=O)SCF)[C@H](C)C[C@H]2[C@@H]3C[C@H](F)C4=CC(=O)C=C[C@]4(C)[C@@]3(F)[C@@H](O)C[C@@]21C` [Run 7, fluticasone propionate] as the compound, how does the “Malvern size data D10” value (listed as 7) read?
A: 1.15 micron

Q: And the “Malvern size data D50” value (listed as 7)?
A: 4.19 micron

Q: And the “Malvern size data D90” value (listed as 7)?
A: 10.00 micron

Q: Which “Malvern size data D10” value (listed as 6) does the source give for `CCC(=O)O[C@]1(C(=O)SCF)[C@H](C)C[C@H]2[C@@H]3C[C@H](F)C4=CC(=O)C=C[C@]4(C)[C@@]3(F)[C@@H](O)C[C@@]21C` [Run 6, fluticasone propionate] here?
A: 0.53 micron

Q: What about the “Malvern size data D50” value (listed as 6) of the same compound?
A: 2.06 micron

Q: What about the “Malvern size data D90” value (listed as 6) of the same compound?
A: 4.93 micron

Q: With `CCC(=O)O[C@]1(C(=O)SCF)[C@H](C)C[C@H]2[C@@H]3C[C@H](F)C4=CC(=O)C=C[C@]4(C)[C@@]3(F)[C@@H](O)C[C@@]21C` [Run 5, fluticasone propionate] as the compound, how does the “Malvern size data D10” value (listed as 5) read?
A: 0.86 micron

Q: And the “Malvern size data D50” value (listed as 5)?
A: 2.98 micron

Q: And the “Malvern size data D90” value (listed as 5)?
A: 6.92 micron

Q: For `CCC(=O)O[C@]1(C(=O)SCF)[C@H](C)C[C@H]2[C@@H]3C[C@H](F)C4=CC(=O)C=C[C@]4(C)[C@@]3(F)[C@@H](O)C[C@@]21C` [Run 4, fluticasone propionate], which “Malvern size data D10” value (listed as 4) is on record?
A: 0.43** micron

Q: What about the “Malvern size data D50” value (listed as 4) of the same compound?
A: 1.51** micron

Q: And the “Malvern size data D90” value (listed as 4)?
A: 3.75** micron

Q: And the “particle size distribution, comparison in words” value (versus micronised material or prior art configurations C and D)?
A: very good match

Q: For `CCC(=O)O[C@]1(C(=O)SCF)[C@H](C)C[C@H]2[C@@H]3C[C@H](F)C4=CC(=O)C=C[C@]4(C)[C@@]3(F)[C@@H](O)C[C@@]21C` [standard micronised FP, fluticasone propionate], which “Malvern size data D10” value is on record?
A: 0.60 micron

Q: What about the “Malvern size data D50” value of the same compound?
A: 1.62 micron

Q: What about the “Malvern size data D90” value of the same compound?
A: 3.20 micron

Q: Which “Malvern size data D10” value (listed as 1) does the source give for `CCC(=O)O[C@]1(C(=O)SCF)[C@H](C)C[C@H]2[C@@H]3C[C@H](F)C4=CC(=O)C=C[C@]4(C)[C@@]3(F)[C@@H](O)C[C@@]21C` [Run 1, fluticasone propionate] here?
A: 0.60 micron

Q: What about the “Malvern size data D50” value (listed as 1) of the same compound?
A: 2.25 micron

Q: And the “Malvern size data D90” value (listed as 1)?
A: 6.29 micron
